Results from publication PMC3790770 (PLoS ONE, 2013).

Molecular target: T1, maltose binding protein (MBP) (Escherichia coli, UniProt P0AEX9)
T1 construct: resulting in an ampicillin-resistant plasmid that expresses cytoplasmic, full-length MBP; made in house
Assay: Titration monitored by tryptophan fluorescence peak wavelength
Details: sucrose up to ∼[…] without maltose and ∼0.9 M with maltose, 37 °C, pH 7.2
Description: Experiments were performed on a Cary 300 Fluorimeter using 200 nM MBP in 100 mM sodium phosphate buffer (pH 7.2) at 37 °C. […] Crowder titrations were conducted with multiple samples, as addition of crowding agent to concentrations reaching 300 g/L was not feasible in the same sample without large volume and MBP concentration changes.
Data were analyzed using two different models: a two-state binding model (Figure 2A), and a three-state competitive binding model (Scheme 1).
Now, [P] represented the sum of the two ligand-free species, i.e., the free protein P and the protein-crowder complex.

Compound: OC[C@H]1O[C@@](CO)(O[C@H]2O[C@H](CO)[C@@H](O)[C@H](O)[C@H]2O)[C@@H](O)[C@@H]1O [sucrose]
- binding to MBP (sucrose titration): no apparent 1∶1 binding to MBP
